Experimental data published in PubChem BioAssay AID179 (DTP/NCI, 2004).
“And” between values parts separate entries of the source, which are not always exact repeats. Equal entries are not always repeated. The source made the active and inactive calls.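 The calls were made as follows: active = compounds giving half or more protection of infected cells from virus-caused growth loss, again on retest; inactive = the rest.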 Where a SMILES comes first, the peptide text is derived from it. The star is where a group is joined. CH2Cl = ClC*

Test system: CEM cells HIV-1 protection, formazan growth assay
Experiment: NCI AIDS Antiviral Assay
Conditions: for IC50: measured here: growth of uninfected CEM cells
Method in brief: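 Human CEM cells, uninfected and HIV-1-infected, exposed to five drug concentrations; growth measured by soluble formazan assay and scored as percent protection from infection, with protecting compounds retested.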

| Structure (SMILES) | EC50 [µM] | IC50 | outcome |
| --- | --- | --- | --- |
| CN1Cc2ccccc2S(=O)(=O)n2cccc2C1=O | > 200 | > 200 µM |  |
| COc1ccc(-c2cc(-c3ccccc3)[nH]c(=S)c2C#N)cc1 | > 200 | 67.6 µM |  |
| N=C(N)C1CN(CCc2cnc[nH]2)C(=O)NC1=O (stereo not given) | > 200 | > 200 µM |  |
| CC(=O)Oc1ccc(-c2oc3c([C@H]4C=C(C)CC(c5ccc(OC(C)=O)cc5OC(C)=O)[C@@H]4C(=O)c4ccc(OC(C)=O)c(CC=C(C)C)c4OC(C)=O)c(OC(C)=O)cc(OC(C)=O)c3c(=O)c2CC=C(C)C)c(OC(C)=O)c1 (stereo not given in full) | > 8.13 | > 8.13 µM |  |
| CC(=O)Nc1ccc(NCC(=O)Nn2cnc3ccc(S(=O)(=O)Nc4ccc(NC(C)=O)cc4)cc3c2=O)cc1 | > 200 | 191 µM |  |
| CC#CC(O)(C(=O)OCCCN(C)C)C1CCCCC1 (stereo not given) | > 200 | > 200 µM |  |
| CC(C)N(C(=O)C12C3(C(=O)OC(C)(C)C)C4C5(C#N)C3C1(C(=O)OC(C)(C)C)C5C42C(=O)OC(C)(C)C)C(C)C (stereo not given) | > 200 | 23.4 µM |  |
| COC(=O)C1(CCSc2ccccc2)CCCC1=O (stereo not given) | > 13.5 | > 13.5 µM |  |
| O=c1[nH]nc(-c2ccccc2)n1-c1cccc([N+](=O)[O-])c1 | > 200 | > 200 µM |  |
| CC(C)(C)N=c1n(C(C)(C)C)oc(=O)n1C(C)(C)C | > 151 | 135 µM |  |
| COc1ccccc1/C=c1\[nH]c(=O)/c(=C/c2ccccc2OC)[nH]c1=O | > 28.2 | > 28.2 µM |  |
| CC(C)C1=C(O)C2=C(C(=O)C1=O)C1(C)CCCC(C)(C)C1C(O)C2OC=O (stereo not given) | > 200 | 10.2 µM |  |
| O=C(/C=C/c1ccccc1)CC(=O)c1ccccc1.O=C(/C=C/c1ccccc1)CC(=O)c1ccccc1.[Cu] | > 200 | 95.5 µM |  |
| CN(C)c1ccc(N=C2N=C(Nc3ccccc3)C(=Nc3ccccc3)S2)cc1 | > 100 | 72.4 µM |  |
| CNC(c1ccncc1)C(NC)c1ccncc1 (stereo not given) | > 200 | > 200 µM |  |
| O=c1[nH]nc(CNc2ccc(Cl)cc2Cl)c2ccccc12 | 55 | 58.9 µM |  |
| COc1cc2c(cc1OC)CCN=C2 |  |  | inactive |
| O=C(NI1OC(=O)c2ccccc21)c1ccc(Cl)cc1 | > 151 | 85.1 µM |  |
| Oc1ccccc1-c1nc2sc(-c3ccccc3O)nc2s1 | > 200 | 132 µM |  |
| CSC1NC(c2ccc(Cl)cc2)=C(C#N)C(=O)N1C1OCC(OC(C)=O)C(OC(C)=O)C1OC(C)=O (stereo not given) | > 200 | 30.9 µM |  |
| O=C(c1ccccc1F)c1c(NCc2ccccc2)c(=O)c1=O | 53.7 | 102 µM |  |
| O=c1c2cc(Cl)ccc2sc2cccc(Cl)c12 | > 1.35 | > 1.35 µM |  |

| Structure (SMILES) | EC50 [µM] | IC50 | outcome |
| --- | --- | --- | --- |
| CC(=O)Oc1ccc(C2(c3ccc(OC(C)=O)cc3)C(=O)Nc3ccccc32)cc1 | > 200 | 35.5 µM and 36.3 µM |  |
| CC(=O)Nc1ccccc1Sc1ccccc1 | > 245 | 69.2 µM |  |
| CCOC(=O)Cc1csc2[n+]1C(=O)/C(=C\c1cccc(Cl)c1Cl)S2 | > 200 | 21.4 µM |  |
| S=C1NC2(CCCCCC2)NN1c1ccccc1 | > 100 | 30.9 µM |  |
| Cc1cnc2c(c1)C(=O)N(c1ccc(Br)cc1)S2(=O)=O | > 200 | 58.9 µM |  |
| O=C(O)c1ccccc1CC1Cc2ccc3c(c2C1=O)CCC3 (stereo not given) | > 200 | 112 µM |  |
| COC(=O)N1C2c3ccccc3C(c3ccccc32)N1C(=O)OC | > 200 | > 200 µM |  |
| CCCCCCCCCCCCC1C(=O)NCCNCCCNCCNC1=O | > 200 | 10 µM |  |
| CC(=O)OCc1cc(-c2nc3ccccc3[nH]c2=O)nn1-c1ccc(Cl)cc1 | > 200 | > 200 µM |  |
| CCOC(=O)C(=CNC(=S)Nc1cc(C)ccc1C)C(=O)OCC | > 200 | > 200 µM |  |
| CNC(=O)OC(C)CN1c2ccccc2Sc2ccccc21 (stereo not given) | > 200 | 41.7 µM |  |
| COC(=O)/C=C/C(=O)CC(O)COC(=O)c1ccccc1 (stereo not given) | > 85.1 | 2.09 µM |  |
| Cc1cc2nnn(C3CCCO3)c2cc1C (stereo not given) | > 200 | > 200 µM |  |
| N#CC(C(=O)CCCC(=O)Nc1ccc(Cl)cc1Cl)c1ccccc1 (stereo not given) | > 661 | > 661 µM |  |
| Cc1ccc(S(=O)(=O)N/N=C(\c2nc3ccc([N+](=O)[O-])cc3[nH]c2=O)C(O)c2ccc([N+](=O)[O-])cc2)cc1 (stereo not given) | > 126 | 112 µM |  |
| CC12Nc3ccccc3N1C(=O)c1ccccc12 (stereo not given) | > 200 | 107 µM |  |
| CCCCCCCCCCCCn1[se]c2ccccc2c1=O | 5.01 | 5.5 µM |  |
| c1ccc(N2CC3CSc4ccc5ccccc5c4C3=N2)cc1 (stereo not given) | > 200 | > 200 µM |  |
| CN1C(=O)[C@@]2(C=CC3(CC2)OCCO3)c2ccccc21 | > 200 | 35.5 µM |  |
| O=C1CCCC/C1=C\c1ccc(Br)cc1 | > 200 | 10.7 µM |  |
| CC(=O)NC(CC(C)C)C(=O)NC(Cc1ccccc1)C(=O)CCl (stereo not drawn) (Ac-Leu-Phe-CH2Cl; configuration not given here) | > 200 | 1.12 µM |  |
| O=C1CC2(CCC(O)(c3cccs3)C(C(=O)c3cccs3)C2)C(=O)c2ccccc2N1 (stereo not given) | > 200 | > 200 µM |  |

| Structure (SMILES) | EC50 [µM] | IC50 | outcome |
| --- | --- | --- | --- |
| COc1cc2c(cc1OC)[C@@H](C(O)c1ccccc1)NCC2 (stereo not given in full) |  |  | inactive |
| Clc1cnc2cccc3c2c1C=CN3 | > 129 | 52.5 µM |  |
| N/C(=N\N=C\C1CC2C=CC1C2)NO (stereo not given) |  |  | inactive |
| O/N=C/[C@H]1COC2(CCCCC2)O1 | > 200 | > 200 µM |  |
| CCC(=N\N=C(N)N)/C(CC)=N/N=C(N)N | > 562 | > 562 µM |  |
| O=C(/C=C/c1ccc(O)c(O)c1)OCc1ccccc1 | > 12 | 11.2 µM |  |
| OC(CN(Cc1nc2ccccc2[nH]1)Cc1nc2ccccc2[nH]1)CN(Cc1nc2ccccc2[nH]1)Cc1nc2ccccc2[nH]1 | > 200 | 2.51 µM |  |
| O=c1[nH]c2cccnc2c(=O)n1O | > 200 | 69.2 µM |  |
| CN(C)C1=NC(=O)C(c2ccccc2)O1 (stereo not given) | > 200 | > 200 µM |  |
| Cc1ccc(SCc2nc3ccccc3c(C)[n+]2[O-])cc1 | 9.33 | 49 µM |  |
| CNCC(OB(c1ccccc1)c1ccccc1)c1ccccc1 (stereo not given) | > 200 | 60.3 µM |  |
| CCOC(=O)/C(=C/c1ccc(OC)c(OC)c1)P(=O)(OCC)OCC | > 676 | 85.1 µM |  |
| COC(OC)c1cccnc1C | > 1480 | 1050 µM |  |
| CCc1cccc(CC)c1NC(=O)C1=C(C)NC(C)=C(C(=O)Nc2c(CC)cccc2CC)C1c1ccc([N+](=O)[O-])cc1 | > 44.7 | > 44.7 µM |  |
| Cc1nnc2c3nccnc3c(N)nn12 | > 200 | > 200 µM |  |
| C=C1C(=O)O[C@@H]2CC(C)C3C(O)CC(O)[C@@]3(C)C[C@H]12 (stereo not given in full) | > 933 | 14.1 µM |  |
| COc1ccc2c(c1)CCCN2S(=O)(=O)c1ccccc1[N+](=O)[O-] | > 200 | 21.4 µM |  |
| O=S1(=O)CCN(c2ccccc2CC(c2c[nH]c3ccccc23)c2c[nH]c3ccccc23)CC1 | > 5.75 | > 5.75 µM |  |
| C=CCOCC(O)CNCC(O)COCC=C (stereo not given) | > 200 | > 200 µM |  |
| CC1(C)CC[P+](CC[P+]2(c3ccccc3)CCC(C)(C)c3ccccc32)(c2ccccc2)c2ccccc21 (stereo not given) | > 407 | 64.6 µM |  |
| O=c1c2c3c(sc2nc2n1N=C(c1ccc(Cl)cc1)CS2)CCCC3 | > 200 | > 200 µM |  |
| CN1C2CCC1CC1(C2)SCCS1 |  |  | inactive |

| Structure (SMILES) | EC50 [µM] | IC50 | outcome |
| --- | --- | --- | --- |
| Nc1nc(Cl)cc(NCC2(CO)CC(=O)C2)n1 | > 200 | > 200 µM |  |
| [O-][n+]1onc2ncccc21 | > 138 | 19.5 µM |  |
| CCN(CC)c1ccc(N=Nc2ccc(-c3nc4cccnc4o3)cc2)cc1 | > 19.5 | > 19.5 µM |  |
| CSCCOC(=O)C(=[N+]=[N-])c1ccc([N+](=O)[O-])cc1 |  |  | inactive |
| CC(=O)OCC12CCC(C)=CC1OC1C3(O)N=C(C)OC3C2(C)C12CO2 (stereo not given) | > 200 | 0.0661 µM |  |
| O=c1[nH][nH]c(=O)c2c1[nH]c(=S)n2Cc1ccccc1 | > 912 | > 912 µM |  |
| O=C(CC(=O)c1cccc([N+](=O)[O-])c1)C(=O)Nc1nc([N+](=O)[O-])cs1 | > 20 | > 20 µM |  |
| Cc1cc2c(C)nn(Cc3ccc(Cl)cc3)c2c(C#N)c1C | > 43.7 | > 43.7 µM |  |
| O=C1Cc2c([nH]c3c(Cl)cccc23)-c2ccccc2N1 | > 200 | 11.5 µM |  |
| CCOC(=O)/C(O)=C(/C=NC(=S)c1ccncc1)C(=O)OCC | > 200 | > 200 µM |  |
| O=C(O)[C@@H]1CCC(=O)N1C(c1ccc2c(c1)OCO2)c1ccc2c(c1)OCO2 | > 200 | > 200 µM |  |
| Cc1nc2cn3c(c2c(=O)[nH]1)CCCCC3 | > 200 | > 200 µM |  |
| COc1ccc(C(=O)Nc2cc(C(=CCC[C@H]3CC[C@@]4(C)[C@@H](CC[C@@H]5[C@@H]4CC[C@]4(C)[C@@H](C(C)CCCC(C)C)CC[C@@H]54)C3)c3cc(NC(=O)c4ccc(OC)c(C(=O)O)c4)c(OC)c(C(=O)O)c3)cc(C(=O)O)c2OC)cc1C(=O)O (stereo not given in full) | 36.3 | 49 µM |  |
| C/C(=N\NC(=S)N1CC2CCC(CC2)C1)c1cccc(C)n1 | > 31.6 | 0.55 µM |  |
| CC(=O)NC1C(OC(C)C(=O)NC(C)C(=O)NC(CCC(=O)NCCCNc2ccc([N+](=O)[O-])c3[nH]c4ccccc4c(=O)c23)C(N)=O)C(O)C(CO)OC1(C)OCc1ccccc1 (stereo not given) | > 151 | 15.8 µM |  |
| C=C1[C@H]2O[C@H]2[C@@H](OC(C)=O)[C@@]2(C)[C@@H](OC(C)=O)C[C@@H](OC(=O)CCC)[C@@](C)(O)[C@@H]2[C@@H](OC(C)=O)[C@]2(O)[C@@H](C)C(=O)O[C@H]2[C@H]1Cl | > 200 | 174 µM |  |
| NCCOB(c1ccccc1)c1ccccc1 | > 200 | 38.9 µM |  |
| CN1CCN(c2c(Cl)cc(Cl)c3[nH]c4ccccc4c(=O)c23)CC1 | > 2 | 0.977 µM |  |
| Cc1ccccc1NC(=O)Cc1csc(N/N=C2\NC(=O)/C(=C/c3cccc([N+](=O)[O-])c3)S2)n1 | > 200 | > 100 µM |  |
